Results taken from US6630326B2, “Cancer diagnosis and therapy based on mutations in TGF-β receptors” (Case Western Reserve University, priority 1995, dated 2003).
Entries after “also recorded” stand apart in the source; their conditions may differ.

Columns and labels:
[1] = tested on: RII protein expression in MCF-7, ZR-75, and T-47D; assay: 125I-TGFβ cross-link assay for cell surface RII protein after 5-Azacytidine treatment; assay type: cell-based, human; settings: MCF-7, ZR-75, T-47D; 2.5-5.0 μM 5-Azacytidine; after 8 days
Source text: A preferred method of detecting the presence of functional RII is by TGFβ binding assay in which labelled TGFβ binds to RII followed by cross-linking and measurement of the amount of label linked to RII protein. Details of this assay have been published in Sun, et al., incorporated herein by reference. Briefly, cell surface receptors may be detected by cross-linking in situ to ^125I labelled TGFβ followed by separation on SDS-PAGE and visualization by autoradiography as described in Example 3 below.
To assay for expression of cell surface TGFβ receptors, we performed cross-linking experiments with ^125I-labeled TGFβ. Cell surface TGFβ receptors were labeled by cross-linking to ^125I-labeled human TGFβ1 as described in Sun, L., et al., 1994 (J. Biol. Chem., 269:26449). Labeled receptors were resolved by SDS-polyacrylamide gel electrophoresis and visualized by autoradiography. There was no detectable ^125I-TGFβ binding to any of eight tested RER^+ cell lines with reduced amounts of RII transcript (FIG. 3). The absence of RI surface receptors in these lines (FIG. 3) is consistent with previous reports that RII receptor is required for TGFβ binding to RI (Wrana, J., et al., 1992, Cell, 71:1003; Sun, L., et al., 1994, J. Biol. Chem., 269:26449). […]

[2] = tested on: RII expression in MCF-7, ZR-75, and T-47D; assay: RNase protection assay for RII transcript after 5-Azacytidine treatment; assay type: cell-based, human; settings: ER+ breast cancer cell lines MCF-7, ZR-75, T-47D; 2.5-5.0 μM 5-Azacytidine; after 8 days
Source text: A preferred method for detecting loss of mRNA is based on RNase protection. Details of this assay have been published in Sun, et al. Briefly the RNase protection assay measures the amount of RII mRNA in a sample by measuring the amount of RNA which binds to a radioactive antisense RII RNA probe. The radioactive antisense RII RNA probe is produced in a test tube, for example from a plasmid which carries 264 bp for RII cDNA (NarI-PstI) cloned downstream of a T3 RNA polymerase site from which the RNA can be transcribed. Usually, a control human probe such as γ-actin RNA is also prepared from a similar plasmid. The probes are hybridized overnight at room temperature in a guanidine buffer with RNA extracted from tumor cells. The next morning probe RNA which is not protected by binding to authentic RII transcript is destroyed by digestion with RNase A+T1. Protected probe RNA is separated from the reaction by electrophoresis on a urea-acrylamide gel and visualized by autoradiography.
Expression of RI and RII transcripts was examined in 38 human colon tumor cell lines using a ribonuclease (RNase) protection assay as described above (see also Sun, et al., 1994). Total RNA (40 μg) from each sample was hybridized overnight in a single reaction to probes for RI, RII and human γ-actin. […]

[3] = tested on: colon cells with intact TGFβ receptors; assay: TGFβ-induced cell death in colon cells; assay type: cell-based; settings: colon cells with intact TGFβ receptors exposed to TGFβ
Source text: Thus, therapeutic effects of restoring an active RII in colon cancer cells will include restoring normal cell death pathways. RII gene therapy is thus useful in combination with and to sensitize cells to conventional cytotoxic radiation or chemotherapy.

Row | Compound | RII protein expression (125I-TGFβ cross-link) [1] | RII expression (RNase protection assay) [2] | induction of cell death (apoptosis) [3]
1 | Nc1ncn([C@@H]2O[C@H](CO)[C@@H](O)[C@H]2O)c(=O)n1 [5-Azacytidine] | RII protein expression was confirmed | restored RII expression; also recorded: RII expression by the treated cells was demonstrated | 
2 | TGFβ: transforming growth factor beta, natural inhibitor of growth of human epithelial cells |  |  | induce cell death
